Key:
Format in all cases: functional
[1] = test system: A498; assay: Cytotoxicity against Homo sapiens (human) A498 cells after 48 hr by sulforhodamine B assay; settings: A498, 48 h
[2] = test system: OVCAR-8; assay: Cytotoxicity against Homo sapiens (human) OVCAR8 cells after 48 hr by sulforhodamine B assay; settings: OVCAR-8, 48 h
[3] = test system: OVCAR-5; assay: Cytotoxicity against Homo sapiens (human) OVCAR5 cells after 48 hr by sulforhodamine B assay; settings: OVCAR-5, 48 h
[4] = test system: OVCAR-4; assay: Cytotoxicity against Homo sapiens (human) OVCAR4 cells after 48 hr by sulforhodamine B assay; settings: OVCAR-4, 48 h
[5] = test system: IGROV-1; assay: Cytotoxicity against Homo sapiens (human) IGROV1 cells after 48 hr by sulforhodamine B assay; settings: IGROV-1, 48 h
[6] = test system: OVCAR-3; assay: Cytotoxicity against Homo sapiens (human) OVCAR3 cells after 48 hr by sulforhodamine B assay; settings: OVCAR-3, 48 h
[7] = test system: UACC-257; assay: Cytotoxicity against Homo sapiens (human) UACC257 cells after 48 hr by sulforhodamine B assay; settings: UACC-257, 48 h
[8] = test system: SK-MEL-5; assay: Cytotoxicity against Homo sapiens (human) SK-MEL-5 cells after 48 hr by sulforhodamine B assay; settings: SK-MEL-5, 48 h
[9] = test system: SK-MEL-2; assay: Cytotoxicity against Homo sapiens (human) SK-MEL-2 cells after 48 hr by sulforhodamine B assay; settings: SK-MEL-2, 48 h
[10] = test system: LOX IMVI; assay: Cytotoxicity against Homo sapiens (human) LOXIMVI cells after 48 hr by sulforhodamine B assay
[11] = test system: M14; assay: Cytotoxicity against Homo sapiens (human) M14 cells after 48 hr by sulforhodamine B assay; settings: M14, 48 h
[12] = test system: SNB-75; assay: Cytotoxicity against Homo sapiens (human) SNB75 cells after 48 hr by sulforhodamine B assay; settings: SNB-75, 48 h
[13] = test system: SNB-19; assay: Cytotoxicity against Homo sapiens (human) SNB19 cells after 48 hr by sulforhodamine B assay; settings: SNB-19, 48 h
[14] = test system: SF-539; assay: Cytotoxicity against Homo sapiens (human) SF539 cells after 48 hr by sulforhodamine B assay; settings: SF-539, 48 h
[15] = test system: DU-145; assay: Cytotoxicity against Homo sapiens (human) DU145 cells after 48 hr by sulforhodamine B assay; settings: DU-145, 48 h
[16] = test system: TK-10; assay: Cytotoxicity against Homo sapiens (human) TK10 cells after 48 hr by sulforhodamine B assay; settings: TK-10, 48 h
[17] = test system: CAKI-1; assay: Cytotoxicity against Homo sapiens (human) Caki1 cells after 48 hr by sulforhodamine B assay; settings: CAKI-1, 48 h
[18] = test system: SF-295; assay: Cytotoxicity against Homo sapiens (human) SF295 cells after 48 hr by sulforhodamine B assay; settings: SF-295, 48 h
[19] = test system: SW-620; assay: Cytotoxicity against Homo sapiens (human) SW620 cells after 48 hr by sulforhodamine B assay; settings: SW-620, 48 h
[20] = test system: HT-29; assay: Cytotoxicity against Homo sapiens (human) HT-29 cells after 48 hr by sulforhodamine B assay; settings: HT-29, 48 h
[21] = test system: HCT-116; assay: Cytotoxicity against Homo sapiens (human) HCT116 cells after 48 hr by sulforhodamine B assay; settings: HCT-116, 48 h
[22] = test system: HCC 2998; assay: Cytotoxicity against Homo sapiens (human) HCC2998 cells after 48 hr by sulforhodamine B assay; settings: HCC 2998, 48 h
[23] = test system: EKVX; assay: Cytotoxicity against Homo sapiens (human) EKVX cells after 48 hr by sulforhodamine B assay
[24] = test system: A549; assay: Cytotoxicity against Homo sapiens (human) A549 cells after 48 hr by sulforhodamine B assay; settings: A549, 48 h
[25] = test system: RPMI-8226; assay: Cytotoxicity against Homo sapiens (human) RPMI8226 cells after 48 hr by sulforhodamine B assay; settings: RPMI-8226, 48 h
[26] = test system: K562; assay: Cytotoxicity against Homo sapiens (human) K562 cells after 48 hr by sulforhodamine B assay; settings: K562, 48 h
[27] = test system: MCF7; assay: Cytotoxicity against Homo sapiens (human) MCF7 cells assessed as cell growth at 10^-4 M after 48 hr by Alamar blue assay; settings: MCF7, 48 h, read-out: Activity
[28] = read-out: LC50 (the source's name)

In the case of `ClCc1cccc(Cn2cnc3ncnc(Cl)c32)c1`, the GI50 [1] is reported as 18.2 µM, the LC50 (lethal concentration, 50% cell kill) [1] is reported as 6.6 µM and the TGI [1] is reported as 36.3 µM. For the same molecule, the GI50 [2] was 3.09 µM, the LC50 (concentration killing 50% of cells) [2] was 60.2 µM and the TGI [2] was 14.8 µM. For the same molecule, the GI50 [3] was 6.76 µM, the TGI [3] was 19.9 µM and the CC50 [3, 28] was over 100 µM. For the same molecule, the GI50 [4] was 4.16 µM, the LC50 (concentration killing 50% of cells) [4] was 46.8 µM and the TGI [4] was 15.8 µM. The GI50 [5] was 3.38 µM, the LC50 [5] was 5.88 µM and the TGI [5] was 13.8 µM. It also gave a GI50 [6] of 1.77 µM, an LC50 [6] of 43.6 µM and a TGI [6] of 3.23 µM. For the same molecule, the GI50 [7] was 1.94 µM, the LC50 (concentration killing 50% of cells) [7] was 18.6 µM and the TGI [7] was 5.49 µM. It also gave a GI50 [8] of 4.67 µM, an LC50 [8] of 45.7 µM and a TGI [8] of 18.2 µM. For the same molecule, the GI50 [9] was 5.75 µM, the LC50 (concentration killing 50% of cells) [9] was 6.76 µM and the TGI [9] was 22.9 µM. The GI50 [10] was 3.09 µM, the LC50 [10] was 43.6 µM and the TGI [10] was 14.1 µM. The GI50 [11] was 3.09 µM, the LC50 [11] was 67.6 µM and the TGI [11] was 14.5 µM. The GI50 [12] was 1.86 µM, the TGI [12] was 3.54 µM and the CC50 [12, 28] was 7.94 µM. The LC50 [13] was 6.76 µM, the GI50 [14] was 19.9 µM and the TGI [14] was 36.3 µM. The GI50 [15] was 15.1 µM, the TGI [15] was 30.9 µM and the GI50 [16] was 1.77 µM. For the same molecule, the TGI [16] was 3.31 µM, the CC50 [16, 28] was 6.3 µM and the GI50 [17] was 2.13 µM. It also gave a TGI [17] of 4.07 µM, a CC50 [17, 28] of over 100 µM and a GI50 [18] of 6.3 µM. For the same molecule, the TGI [18] was 19.1 µM, the CC50 [18, 28] was 64.6 µM and the GI50 [19] was 15.1 µM. It also gave a TGI [19] of 32.4 µM, a CC50 [19, 28] of 7.41 µM and a GI50 [20] of 2.88 µM. It also gave a TGI [20] of over 100 µM, a CC50 [20, 28] of 6.02 µM and a GI50 [21] of 1.77 µM. The TGI [21] was 5.24 µM, the CC50 [21, 28] was 9.54 µM and the GI50 [22] was 1.69 µM. For the same molecule, the TGI [22] was 3.23 µM, the CC50 [22, 28] was 40.7 µM and the GI50 [23] was 13.8 µM. It also gave a TGI [23] of 29.5 µM, a CC50 [23, 28] of 64.6 µM and a GI50 [24] of 17.4 µM. The TGI [24] was 39.8 µM, the CC50 [24, 28] was 91.2 µM and the GI50 [25] was 13.8 µM. It also gave a TGI [25] of 34.7 µM, a CC50 [25, 28] of 89.1 µM and a GI50 [26] of 16.6 µM. For the same molecule, the TGI [26] was 47.9 µM, the CC50 [26, 28] was over 100 µM and the growth at 100 µM [27] was 1%.
